# Assay results from patent publication US20160123960A1, “METHOD FOR PREPARING THREE-DIMENSIONAL, ORGANOTYPIC CELL CULTURES AND USES THEREOF” (priority 2013, published 2016).
# Key:
# [1] = system: HCT-116 (HCT-116-Luc) OTOCs; conditions: repeated experiment, newly generated HCT-116 OTOCs and InSphero spheroids
# Protocol: 24 OTOCs were removed and placed in a 6-well plate, 4 OTOCs/well on day 3 post OTOC seeding/creation.
# At 4 days post drug administration all OTOC's were collected for viability measurement to look at growth kinetics and drug resistance to STP.
# Each OTOC was placed in a glass test tube with several glass beads. Approximately 800 of PBS was added to test tube and the tube was vortexed for 2-3 min to disrupt the OTOC. After vortexing each test tube was placed on ice until sampling. A black 96 well plate was used for the samples. For each lane 100 μl of the OTOC solution was placed in each well (8 wells/800 (total)/OTOC) until all OTOCs samples were completed. 100 μl of Celltiter glow was added to each well and the plates were rested for 10 min before reading. IVIS Spectrum was run on Auto exposure for each plate and the Living Image analysis program was used to determine Radiance/per well. Lanes were added up and group average and error was determined.
# The same conditions that were use in the previous InSphero experiment (in regards to dose and timing) were used in this experiment.
# [2] = system: HCT-116 spheroids; experiment: InSphero assay (hanging drop spheroids), HCT-116; conditions: Homo sapiens
# Excerpt: This experiment that was undertaken was to determine if there was an increase in the resistance of known drug in comparison of the spheroid culture to OTOC format. The same conditions that were use in the previous InSphero experiment (in regards to dose and timing) were used in this experiment.
# [3] = system: H1048 μOTOCs; experiment: 18F-FDG uptake in μOTOCs by Cerenkov Luminescence Imaging, H1048; format: cell-based; conditions: 250 μM, 24 hrs, CLI
# Protocol: (§1) Cobalt chloride (CoCl2) is known to cause an increase in 18F-FDG uptake in cells treated /over 24 hours. As such, 250 μM CoCl2 was used to test whether μTOCs could be imaged.
# (§2) μOTOCs of H1048 (small cell lung carcinoma) and T47D (mammary gland; ductal carcinoma) cells were generated using the method described in Example 1.
# (§3) On Day 3 post seeding/creation of the OTOCs (i.e, after forming the μOTOCs in oil then transferring to T75 flask for 3 days of culture), the μOTOCs were transferred one at a time via pipette into a 96 well plate (1 μOTOC/well). 250 μM CoCl2 was added to each well. Cerenkov Luminescence Imaging was used to monitor the FDG response in vitro.
# [4] = system: T47D μOTOCs; experiment: 18F-FDG uptake in μOTOCs by Cerenkov Luminescence Imaging, T47D; format: cell-based; conditions: 250 μM, 24 hrs, CLI
# Protocol: as §1, §2, §3
# [5] = system: HCT-116 OTOCs; experiment: 18F-FDG uptake in OTOCs by Cerenkov Luminescence Imaging, HCT-116; format: cell-based; conditions: 700 ng/ml, 24 hr time point, CLI
# Excerpt: (§4) The objective of this study was to monitor radio-labeled compound uptake in vitro using the OTOC system described herein. Three tumor cell lines (HT-29 (colon tumor cell line), HCT-116 (colon tumor cell line), and H460 (lung tumor cell line) were used to generate OTOCs in order to test the effects of FDG uptake after drug treatment with MLN9708, a proteasome inhibitor. OTOCs for each cell line were transferred to 6 well plates, respectively, with 6 OTOCs/well.
# (§5) An in vitro dosage of MLN9708 was extrapolated from historical in vivo PK studies for this compound. A 700 ng/ml concentration was decided upon and used in the OTOC studies described herein (derived from the mean tumor concentration achievable with a standard dose of MLN9708 (11 mg/kg PK dose, IV)).
# (§6) The imaging modality Cerenkov Luminescence Imaging (CLI, Robertson et al. (2009) Phys. Med. Biol. 54:N355-N365) was used to monitor the FDG response in vitro.
# (§7) The cell line HT-29 (KRAS WT) is known to be responsive to MLN9708 in vivo (t/c <0.3), while HCT-116 and H460 (both KRAS mutants) have shown resistance to proteasome inhibition (data not shown). OTOCs were imaged via CLI at 24, 48, 72, 96 hours post compound administration.
# [6] = system: H460 OTOCs; experiment: 18F-FDG uptake in OTOCs by Cerenkov Luminescence Imaging, H460; format: cell-based; conditions: 700 ng/ml, 24 hr time point, CLI
# Excerpt: as §4, §5, §6, §7
# [7] = system: HT-29 (KRAS WT); experiment: In vivo response of HT-29 (t/c); conditions: HT-29 in vivo
# [8] = system: HT-29 OTOCs; experiment: 18F-FDG uptake in OTOCs by Cerenkov Luminescence Imaging, HT-29; format: cell-based; conditions: 700 ng/ml, 24 hr time point, CLI
# Excerpt: as §4, §5, §6, §7
compound,measurement,setting,value
CN[C@@H]1C[C@H]2O[C@@](C)([C@@H]1OC)n1c3ccccc3c3c4c(c5c6ccccc6n2c5c31)C(=O)NC4 [Staurosporine],greater resistance in OTOCs assay as compared to InSphero assay,[1],1800 ×
same,IC50,[2],37 nM
"[Cl][Co][Cl] [CoCl2, Cobalt chloride]",increase in 18F-FDG uptake,[3],22.6%
same,increase in FDG uptake,[4],33.7%
CC(C)C[C@H](NC(=O)CNC(=O)c1cc(Cl)ccc1Cl)B1OC(=O)C(CC(=O)O)(CC(=O)O)O1 [MLN9708],FDG uptake response,[5],< 10%
same,FDG signal change from control,[6],-10%
same,t/c,[7],< 0.3
same,increased FDG uptake,[8],48%
